Data from PMC6071567 (Cold Spring Harbor Molecular Case Studies, 2018).
Entries after “also recorded” stand apart in the source; their conditions may differ. Read-outs that look alike come from different tables or passages of the source.

What was measured:
[1] = test system: SK-N-BE; test: Cell viability by resazurin assay, 72 h; format: cell-based; conditions: Homo sapiens
[2] = test system: IMR32; test: Cell viability by resazurin assay, 72 h; format: cell-based, human; conditions: ALK wt, MYCN amplified
[3] = test system: SK-N-AS; test: Cell viability by resazurin assay, 72 h; format: cell-based; conditions: Homo sapiens
[4] = test system: CLB-GE; test: Cell viability by resazurin assay, 72 h; format: cell-based; conditions: Homo sapiens
[5] = test system: KELLY; test: Cell viability by resazurin assay, 72 h; format: cell-based, human; conditions: ALK F1174L, amplified, MYCN amplified
[6] = test system: CLB-BAR; test: Cell viability by resazurin assay, 72 h; format: cell-based; conditions: Homo sapiens
[7] = test system: ALK-I1171T metastatic neuroblastoma; format: in vivo, human; conditions: for Primary tumor volume (MRI): ∼18.8 mL immediately before start
[8] = test system: CLB-GAR; test: Cell viability by resazurin assay, 72 h; format: cell-based, human; conditions: ALK R1275Q, MYCN nonamplified
[9] = test system: SK-N-DZ; test: Cell viability by resazurin assay, 72 h; format: cell-based; conditions: Homo sapiens
[10] = test system: CLB-PE; test: Cell viability by resazurin assay, 72 h; format: cell-based; conditions: Homo sapiens

## Cc1cc(Nc2ncc(Cl)c(Nc3ccccc3S(=O)(=O)C(C)C)n2)c(OC(C)C)cc1C1CCNCC1 [ceritinib, 5-chloro-N2-(2-isopropoxy-5-methyl-4-(piperidin-4-yl)phenyl)-N4-(2-(isopropylsulfonyl)phenyl)pyrimidine-2,4-diamine]
[1]
  IC50: > 1.5 µM
[2]
  IC50: > 0.5 µM
[2]; Homo sapiens, IMR-32, 72 h
  IC50: > 0.35 µM
[3]
  IC50: > 3 µM
[4]
  IC50: 0.131 ± 0.024 µM
[5]
  IC50: 0.329 ± 0.036 µM
[5]; Homo sapiens, Kelly
  IC50: ~0.33 µM
[6]
  IC50: 0.0361 ± 0.0062 µM
[7]; 21 mo after initiation of ceritinib, 1 yr after surgery
  Clinical evaluation (CT, MRI, MIBG scintigraphy): complete remission at all metastatic sites; also recorded: no residual tumor in the abdomen and complete resolution of metastases at all sites
[7]; after 3 mo therapy
  Primary tumor volume (MRI): ~13.8 mL
[7]; after 6 mo therapy, prior to surgery
  Primary tumor volume (MRI): ~10.6 mL
[7]; after 6.5 mo of ceritinib treatment
  Decrease in size of primary tumor (MRI, volumetric): −43.6%
[7]; after 34 mo of continuous ceritinib treatment
  Clinical status: continuous complete remission
[7]; after the first 4-wk cycle, 450 mg/m^2 once daily
  Urinary catecholamines: decreased to levels below the upper reference limit
[7]; tumor removed at 7.5 mo of treatment, 27% before treatment
  Ki-67 positivity of resected tumor: 5%
[8]
  IC50: 0.102 ± 0.016 µM
[8]; Homo sapiens
  IC50: ~0.11 µM
[9]
  IC50: > 0.8 µM
[10]
  IC50: > 15 µM

## C[C@@H](Oc1cc(-c2cnn(C3CCNCC3)c2)cnc1N)c1c(Cl)ccc(F)c1Cl [crizotinib]
[1]
  IC50: > 1 µM
[2]
  IC50: 0.349 ± 0.045 µM
[2]; Homo sapiens, IMR-32, 72 h
  IC50: > 0.35 µM
[3]
  IC50: 0.353 ± 0.027 µM
[4]
  IC50: 0.234 ± 0.018 µM
[5]
  IC50: 0.333 ± 0.078 µM
[5]; Homo sapiens, Kelly
  IC50: ~0.33 µM
[6]
  IC50: 0.0549 ± 0.02 µM
[9]
  IC50: > 4 µM
[10]
  IC50: > 4 µM
